Reference: PMC10963303 (Pharmacology Research & Perspectives, 2024)
Where two headings read alike, the source gives them in different places.

Legend:
[1] = plasma; placebo + metformin‐HCl 850 mg single dose
clinical = conditions: human, in vivo
OCT2 [2] = molecular target: T1, OCT2 (Homo sapiens, UniProt O15244); experiment: clinical; conditions: plasma, oral
T1 sequence (O15244 1-555): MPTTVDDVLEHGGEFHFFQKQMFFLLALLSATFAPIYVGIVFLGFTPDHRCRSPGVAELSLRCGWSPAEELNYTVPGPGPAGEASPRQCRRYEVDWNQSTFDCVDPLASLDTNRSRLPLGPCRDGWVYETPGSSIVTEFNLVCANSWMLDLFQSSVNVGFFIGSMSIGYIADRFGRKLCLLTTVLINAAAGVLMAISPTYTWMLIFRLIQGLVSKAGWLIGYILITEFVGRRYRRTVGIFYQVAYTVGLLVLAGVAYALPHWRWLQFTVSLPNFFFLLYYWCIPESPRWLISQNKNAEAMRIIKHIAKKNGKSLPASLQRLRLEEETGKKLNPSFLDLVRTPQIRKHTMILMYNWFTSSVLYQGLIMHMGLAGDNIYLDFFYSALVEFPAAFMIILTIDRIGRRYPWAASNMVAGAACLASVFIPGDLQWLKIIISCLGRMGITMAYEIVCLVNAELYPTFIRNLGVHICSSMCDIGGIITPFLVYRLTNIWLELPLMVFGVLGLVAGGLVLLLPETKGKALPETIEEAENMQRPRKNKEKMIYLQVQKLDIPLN

[3] = tested on: 80 known receptors, ion channels, and enzyme targets; experiment: Screen of 80 known receptors, ion channels, and enzyme targets; conditions: concentrations up to 10 μM; internal data
[4] = human, in vivo, po, 100 mg
[5] = tested on: human P‐gp, BCRP, BSEP, MATE1, MATE2‐K, OAT1, OAT3, OATP1B1, OATP1B3, OCT1, OCT2; conditions: tested transporter panel (ulotaront: except OCT2); cited from earlier work
OAT3 = conditions: at 50 μM; cited from earlier work
MATE1 = conditions: at 50 μM; cited from earlier work
OCT2 [6] = molecular target: T1, OCT2; parameters: […]; from tissue; host or cells: kidney of adult human subjects with schizophrenia (in vivo clinical study); conditions: cited from earlier work

## CN(C)C(=N)N=C(N)N [metformin]
[1]
  t max, Median (min, max): 4.0 (2.0, 5.0) h
clinical
  Cmax: 1130 ng/mL
  Tmax: 4.5 h
  Vd/F: 1280 L
clinical; po, 850 mg
  CL renal: 287 mL/min
OCT2 [2]
  AUC(0-inf): 12500 ng·h/mL

## O=C(O)[C@@H]1OCCc2ccsc21 [SEP‐383103]
[3]
  binding or functional activity in screen of 80 targets: did not identify binding or functional activity
[4]
  AUCinf, Geometric mean (CV%): 2510 (30.1) ng * h/mL
  AUCinf, Mean (SD): 2620 (797) ng * h/mL
  AUCinf, Median (min, max): 2490 (1550, 4810) ng * h/mL
  AUClast, Geometric mean (CV%): 2520 (29.7) ng * h/mL
  AUClast, Mean (SD): 2630 (780) ng * h/mL
  AUClast, Median (min, max): 2490 (1540, 4760) ng * h/mL
  C max, Geometric mean (CV%): 150 (22.6) ng/mL
  C max, Mean (SD): 154 (34.9) ng/mL
  C max, Median (min, max): 156 (99.7, 255) ng/mL
  t 1/2, Mean (SD): 9.17 (1.78) h
  t max, Median (min, max): 6.00 (3.00, 8.00) h
[5]
  inhibitor of human efflux and uptake transporters: not an inhibitor
OAT3
  inhibition of OAT3: ~ 35%
MATE1
  inhibition of MATE1: ~ 20%

## C[C@@H]1CCO[C@H]2Cn3cc(C(=O)NCc4ccc(F)cc4F)c(=O)c(O)c3C(=O)N12 [dolutegravir]
OCT2 [6]; co‐administration of 50 mg dolutegravir bid
  increase of metformin AUC: 145%
OCT2 [6]; co‐administration of 50 mg dolutegravir qd
  increase of metformin AUC: 79%
OCT2 [6]; dolutegravir oral 50 mg qd or bid
  unbound C max/IC50 ratio (OCT2): 2–3.6
